Consider 17 molecules from PubChem BioAssay (NCI).

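Exposure lasted 48 hours, with cells grown in 96-well plates and compounds tested at five concentrations. Definition used: TGI = concentration required for complete inhibition of growth.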

Holding throughout (assay): NCI tumour cell line growth inhibition, 48 h
Assay [1] concerns SW-620 colon.
For assay [2], the system named is NCI/ADR-RES ovarian.
The test system of assay [3] is HOP-92 NSCLC.
In assay [4] the test system is NCI-H460 lung.
Assay [5] has as its system U251 CNS.
In assay [6] the test system is SNB-19 CNS.
Assay [7] concerns NCI-H226 lung.
For assay [8], the system named is BT-549 breast.
Assay [9] deals with PC-3 prostate.
For assay [10], the system named is TK-10 renal.
Assay [11] deals with T-47D breast.
Assay [12] has as its system IGROV1 ovarian.
The subject of assay [13] is SR leukemia.
Assay [14] concerns MOLT-4 leukemia.
The subject of assay [15] is MDA-MB-435.
The test system of assay [16] is UO-31 renal.
The subject of assay [17] is CAKI-1 renal.
Assay [18] has as its system SF-539 CNS.
The test system of assay [19] is KM12 colon.
In assay [20] the test system is MDA-N.

`COc1ccc(C2Oc3c(cccc3-c3c(-c4ccc(O)cc4)oc4cc(O)cc(O)c4c3=O)C(=O)C2O)cc1O` (stereo not drawn): the TGI in assay [1], in assay [2], in assay [3], in assay [4], in [5] and in assay [6] was over 100 µM in each case. For the same molecule, the TGI in assay [7], in assay [8], in assay [9], in assay [10], in [11] and in assay [12] was over 100 µM throughout. Besides, the TGI in [13], in assay [14], in [15] and in [16] was over 100 µM throughout.

In the case of `CCOC(=O)C1=C(O)C(=O)c2ccoc2C1=O`, the TGI in [1], in [17], in assay [3], in assay [4], in assay [5] and in assay [6] was over 100 µM each time. Moreover, the TGI in assay [7], in assay [18], in [10], in assay [12], in [13] and in assay [14] was over 100 µM each time. Besides, the TGI in assay [19] and in assay [16] was over 100 µM in each case.

As for `COC(=O)CSc1nc2[nH]c(SC)c(C(N)=O)c2c(=O)n1-c1ccccc1`, the TGI in [1], in [17], in assay [3], in [9], in [10] and in assay [11] was over 10 µM throughout. In addition, the TGI in [12], in [13], in assay [20], in [14], in assay [19] and in assay [15] was over 10 µM throughout.

Turning to `CCOC(=O)c1csc(C(CSCc2ccc(OC)cc2)N2C(=O)c3ccccc3C2=O)n1` (stereo not drawn), the TGI in [1], in assay [2], in assay [17], in assay [3], in [4] and in [5] was over 100 µM throughout. The TGI in [6], in assay [7], in [18], in [8], in [9] and in [10] was over 100 µM each time. The TGI in assay [11], in assay [12], in [13], in assay [14], in assay [19] and in assay [15] was over 100 µM throughout. Moreover, the TGI in assay [16] was over 100 µM.

Turning to `COc1cc2c(c(OC)c1OC)C(=O)[C@@H](O)[C@H]2NC(N)=O`, the TGI in assay [1], in assay [2], in assay [17], in assay [4], in assay [5] and in [6] was over 100 µM in each case. Further, the TGI in [7], in assay [18], in [9], in assay [10], in assay [11] and in assay [12] was over 100 µM throughout. The TGI in [20], in assay [14], in assay [19], in assay [15] and in [16] was over 100 µM throughout.

For `O=c1[nH]nc(-c2ccccc2)n1-c1cccc([N+](=O)[O-])c1`, the TGI in assay [1], in assay [2], in assay [17], in assay [3], in [4] and in assay [5] was over 100 µM throughout. Also, the TGI in assay [6], in assay [7], in assay [18], in [10], in assay [11] and in [12] was over 100 µM each time. In addition, the TGI in assay [13], in [20], in assay [14], in [19], in assay [15] and in [16] was over 100 µM each time.

As for `C=C1CCC2[C@](C)(CCC[C@]2(C)C(=O)O)[C@@H]1CCc1ccoc1` (stereo partly drawn), the TGI was over 100 µM in assay [1]; 98.2 µM in assay [2]; over 100 µM in assay [17]; over 100 µM in [4]; over 100 µM in [6]; 65.8 µM in assay [7]. Further, the TGI in assay [18] was 99.4 µM; in assay [9] it was over 100 µM; in assay [10], 74.7 µM; in assay [11], over 100 µM; in assay [12], 84.8 µM; in assay [13] it was 70.4 µM. Besides, the TGI in assay [20] was over 100 µM; in assay [14], over 100 µM; in assay [19], 74.9 µM; in [15], over 100 µM; in [16] it was over 100 µM.

Take `CC(C)(C)C1=CC(=C2C=Cc3cc(O)ccc3O2)C=C(C(C)(C)C)C1=O`: the TGI in [1] is 3.48 µM; in assay [2], 4.9 µM; in assay [17], 3.11 µM; in assay [3], 3.19 µM; in assay [4], 2.7 µM; in assay [5], 2.69 µM. In addition, the TGI in assay [6] was found to be 3.3 µM; in assay [7], 3.43 µM; in [18] it was 3.4 µM; in [8], 3.55 µM; in assay [9], 3.01 µM; in assay [10], 3.09 µM. The TGI in assay [11] was determined as 2.16 µM; in assay [12], 3.04 µM; in [13] it was 3.86 µM; in assay [19], 3.73 µM; in assay [15], 3.55 µM; in assay [16] it was 2.5 µM.

In the case of `CC(=O)N1C(=O)c2cc3ccccc3cc21`, the TGI in [1], in assay [2], in assay [3], in [4], in [5] and in assay [6] was over 100 µM throughout. Further, the TGI in assay [7], in [18], in [9], in assay [10], in [11] and in assay [12] was over 100 µM each time. The TGI in [13], in assay [20], in assay [15] and in [16] was over 100 µM each time.

Regarding `CCOC(=O)[C@@H]1ON2O[C@@H](OC3CCCCC3c3ccccc3)C[C@H]3OC(=O)[C@@H]1C32` (stereo partly drawn), the TGI in [1], in assay [2], in [17], in assay [3], in assay [4] and in assay [5] was over 100 µM in each case. Besides, the TGI in assay [7], in assay [18], in assay [10], in [11], in assay [12] and in assay [13] was over 100 µM in each case. Moreover, the TGI in assay [20], in [14], in assay [19], in assay [15] and in assay [16] was over 100 µM in each case.

Regarding `CNn1c(-c2ccc(C)cc2)n[nH]c1=O`, the TGI in assay [1], in [2], in assay [17], in assay [3], in [4] and in assay [5] was over 100 µM in each case. The TGI in [6], in assay [7], in assay [18], in [8], in assay [9] and in [10] was over 100 µM throughout. Moreover, the TGI in assay [11], in assay [12], in assay [13], in assay [14], in assay [19] and in assay [15] was over 100 µM in each case. Moreover, in [16], the TGI was over 100 µM.

For `CNC(=O)CCCNC(=O)CCCCC(=O)N(C)C`, the TGI in assay [1], in assay [2], in assay [17], in [4], in assay [5] and in [6] was over 100 µM in each case. Further, the TGI in [18], in assay [9], in [10], in assay [11], in assay [20] and in [14] was over 100 µM each time. The TGI in assay [19], in assay [15] and in assay [16] was over 100 µM throughout.

With `COc1ccc(/C=C2\Sc3nnc(-c4ccccc4)n3N=C2c2cc(F)c(Cl)cc2Cl)cc1OC`, the TGI in assay [1] was 92 µM; in assay [2], over 100 µM; in assay [17] it was over 100 µM; in assay [3] it was over 100 µM; in [4] it was over 100 µM; in assay [5], over 100 µM. Further, the TGI in assay [7], in assay [18], in [9], in [10], in [11] and in assay [12] was over 100 µM each time. Further, the TGI in assay [13] is over 100 µM; in [20] it was over 100 µM; in assay [14], 68.9 µM; in assay [19], over 100 µM; in assay [15] it was over 100 µM; in assay [16], over 100 µM.

For `CCCCCCc1cc2cc(-c3cn4c(n3)sc3ccccc34)c(=O)oc2cc1O`, the TGI in assay [1], in [2], in [17], in assay [3], in [4] and in [5] was over 100 µM in each case. For the same molecule, the TGI in assay [6], in assay [7], in [18], in assay [8], in [9] and in assay [10] was over 100 µM throughout. The TGI in assay [11], in [12], in [13], in assay [14], in assay [19] and in [15] was over 100 µM in each case. This molecule also displayed a TGI in assay [16] of over 100 µM.

For `CCCCCCCCCCCCCCCCCCOCC(C[N+]1(C)CCC(O)CC1)OCC` (stereo not drawn), the TGI in [1] is 35.5 µM; in [17], 21.1 µM; in assay [3] it was 4.49 µM; in [6], 28.3 µM; in assay [7], 21.4 µM; in assay [18] it was 32.8 µM. The TGI in assay [10] came to 20.5 µM; in [12], 21 µM; in assay [13], 3.73 µM; in [14], 10.6 µM; in assay [16] it was 27.5 µM.

Regarding `COC1(OC)N=C(N)C2(C#N)C(C)=C3NCN(C)N=C3C12C#N` (stereo not drawn), the TGI in assay [1], in assay [2], in assay [17], in assay [3], in [5] and in [6] was over 100 µM in each case. In addition, the TGI in assay [7], in assay [18], in [9], in assay [10], in assay [11] and in assay [12] was over 100 µM throughout. In addition, the TGI in [20], in assay [19], in [15] and in assay [16] was over 100 µM throughout.

In the case of `O=C1C[C@@H]2[C@@H](c3ccccc3)[C@@H]3C(=O)c4ccccc4NC(=O)[C@H]3[C@]2(O)c2ccccc2N1`, the TGI in assay [1], in assay [4], in assay [5], in [6], in assay [7] and in assay [10] was over 100 µM each time. Further, the TGI in [12], in assay [13], in [14], in assay [19] and in assay [16] was over 100 µM in each case.
